Data published in patent US8481503B2, “Combination cancer therapy with an AKT inhibitor and other anticancer agents” (Merck Sharp & Dohme Corp., priority 2009, dated 2013).

Assays:
Type in all cases: cell-based, Human
[1] = tested on: NCI-H460 NSCLC cell line; assay: in vitro proliferation/viability, combination Compound A and standard of care agents (CellTiter-Glo, CalcuSyn CI); details: combination partner SOC with Compound A, simultaneous 72 h
Procedure: (§1) A 2- or 3-fold serial dilution series of concentrated Compound A/carboplatin combinations was prepared, in which the concentration ratio of the two drugs was fixed and equal to […] ratio of Compound A and carboplatin determined in single agent titrations described above. Corresponding single agent dilution series of concentrated Compound A and carboplatin were also prepared. The three dilution series were then tested in the proliferation/viability assay as described above. The data were analyzed using CalcuSyn software (BIOSOFT) that calculates combination index (CI) for each combination of Compound A/carboplatin as described below. Combination index values were generated by inserting the interpolated values into the mutually exclusive equation derived by Chou and Talalay.
(§2) Synergistic interaction between compounds was analyzed by the median effect method described by Chou and Talalay (Adv. Enzyme Regul. 22: 27-55, 1984). Studies were first conducted to determine the potency of Compound A or combination partner (Drug-A) as single agent in inhibiting proliferation/viability of tumor cells. The IC50 values of each single agent were determined by fitting data to four parameter dose-response equation. Percent inhibition of cell growth was calculated relative to vehicle treated control wells. […] Y starts at Bottom and goes to Top with a sigmoid shape.
(§3) The fixed ratio experimental design was then used to compare of various Compound A/Drug-A combinations and corresponding single agent treatments.
(§4) D1 and D2 are known from the composition of the combination and D1c and D2c can be calculated from the equation; Dc=Dm*[fa/(1−fa)]^1/m where Dm is the concentration of drugs giving 50% effect, fa is the fraction affected, and m is the slope from the median effect plot of log (fa/fu) where fu is the fraction unaffected versus log (D). A CI equal to 1 signifies an additive effect, less than 1 a synergistic effect, and greater than 1 an antagonistic effect.
Human non-small cell lung cancer cell (NCI-H460) was obtained from the American Type Culture Collection (ATCC). NCI-H460 cells were cultured in RPMI-1640 containing heat-inactivated 10% fetal bovine serum (FBS) in a humidified incubator at 37° C. in 5% CO2.
(§5) NCI-H460 NSCLC cell line was seeded at 2,000 cells/well in RPMI 1640 supplemented with 10% heat-inactivated FBS in 96 well tissue culture plates (CORNING #3340) and incubated at 37° C. in 5% CO2 overnight. On the next day Compound A, doxorubicin or the combination of the two agents was added as a 2-fold dilution series in RPMI containing 1% DMSO. The final DMSO concentration in each assay was 0.1%. The plates were then incubated at 37° C. in 5% CO2 for 72 hours. The number of viable cells was measured using CellTiter-Glo cell viability assay (Promega #G7571). The luminiscence signal was read using a ARVO-SX multimode plate reader (Perkin-Elmer). Combination index was determined by the same method as described in section T1.3.
as §5, with “camptothecin” for “doxorubicin”
NCI-H460 NSCLC cell line was seeded at 2,000 cells/well in RPMI 1640 supplemented with 10% heat-inactivated FBS in 96 well tissue culture plates (CORNING #3340) and incubated at 37° C. in 5% CO2 overnight.

[2] = tested on: A2780 ovarian cancer cell line; assay: as above; details: combination partner SOC with Compound A, simultaneous 72 h
Procedure: as §1, §2, §3, §4
Human ovarian cancer cell (A2780) was obtained from the European Collection of Cell Culture (ECACC). A2780 cells were cultured in RPMI-1640 containing heat-inactivated 10% fetal bovine serum (FBS) in a humidified incubator at 37° C. in 5% CO2.
as §5, with “The cells were” for “NCI-H460 NSCLC cell line was”
as §5, with “The cells were” for “NCI-H460 NSCLC cell line was”, “camptothecin” for “doxorubicin”
The cells were seeded at 2,000 cells/well in RPMI 1640 supplemented with 10% heat-inactivated FBS in 96 well tissue culture plates (CORNING #3340) and incubated at 37° C. in 5% CO2 overnight. On the next day Compound A, 5-FU or the combination of the two agents was added as a 2-fold dilution series in RPMI containing 1% DMSO.

[3] = tested on: Caspase-3/7; assay: Caspase-3/7 assay (Caspase-Glo 3/7) in NCI-H460 cells, Compound A plus cytotoxic agents
[4] = tested on: Caspase-3/7; assay: Caspase-3/7 assay (Caspase-Glo 3/7) in A2780 cells, Compound A plus cytotoxic agents
Procedure: A2780 ovarian cancer cell line was cultured at 37° C. in complete medium (RPMI-1640 supplemented with 10% heat-inactivated FBS) and plated at 2,000 cells/well in 96 well assay plates (CORNING #3340). […] Then, Compound A and cytotoxic agents were added to each well and incubated at 37° C. in 5% CO2 for 24 hours. […] Medium was removed and 50 ul of Caspase-Glo reagents were added to wells. […] Relative Caspase-3/7 induction level was then calculated as the fold increase compared with the level of caspase-3/7 induction in the non-treatment group.

[5] = combination partner SOC with Compound A 62.5 nM
[6] = combination partner SOC with Compound A 250 nM
[7] = combination partner SOC with Compound A 1000 nM

SMILES | Combination index for above fractional inhibition, ED50 [1] | Combination index for above fractional inhibition, ED75 [1] | Combination index for above fractional inhibition, ED90 [1] | Combination index for above fractional inhibition, ED50 [2] | Combination index for above fractional inhibition, ED75 [2] | Combination index for above fractional inhibition, ED90 [2] | Caspase-3/7 fold induction at 24 h (fold of DMSO control) [3, 5] | Caspase-3/7 fold induction at 24 h (fold of DMSO control) [3, 6] | Caspase-3/7 fold induction at 24 h (fold of DMSO control) [3, 7] | Caspase-3/7 fold induction at 24 h (fold of DMSO control) [4, 5] | Caspase-3/7 fold induction at 24 h (fold of DMSO control) [4, 6] | Caspase-3/7 fold induction at 24 h (fold of DMSO control) [4, 7]
O=c1[nH]cc(F)c(=O)[nH]1 [Compound 5-FU, 5-fluorouracil] | 0.35 | 0.30 | 0.37 | 0.68 | 0.54 | 0.53 | 1.2 fold of DMSO control | 1.3 fold of DMSO control | 1.4 fold of DMSO control | 1.5 fold of DMSO control | 1.7 fold of DMSO control | 2.5 fold of DMSO control
COc1cccc2c1C(=O)c1c(O)c3c(c(O)c1C2=O)C[C@@](O)(C(=O)CO)C[C@@H]3O[C@H]1C[C@H](N)[C@H](O)[C@H](C)O1 [Doxorubicin, (2S,4S)-4-(3-amino-2,3,6-trideoxy-α-L-lyxo-hexopyranosyloxy)-2,5,12-trihydroxy-2-hydroxyacetyl-7-methoxy-1,2,3,4-tetrahydrotetracene-6,11-dione] | 0.27 | 0.18 | 0.17 | 0.70 | 0.43 | 0.27 | 1.3 fold of DMSO control | 1.7 fold of DMSO control | 2.8 fold of DMSO control | 1.6 fold of DMSO control | 2.8 fold of DMSO control | 4.1 fold of DMSO control
CC[C@@]1(O)C(=O)OCc2c1cc1n(c2=O)Cc2cc3ccccc3nc2-1 [Camptothecin, 4-ethyl-4-hydroxy-1H-pyrano[3′,4′:6,7]indolizino[1,2-b]quinoline-3,14-(4H,12H)-dione] | 0.39 | 0.39 | 0.63 | 0.56 | 0.40 | 0.29 | 1.2 fold of DMSO control | 1.4 fold of DMSO control | 1.7 fold of DMSO control | 1.9 fold of DMSO control | 2.6 fold of DMSO control | 4.0 fold of DMSO control
